Laboratory results: patent US9828350B2, “5,6-dihydro-2H-[1,4]oxazin-3-yl-amine derivatives useful as inhibitors of beta-secretase (BACE)” (Janssen Pharmaceutica NV, priority 2010, dated 2017)
Counter-ions that a name gives are not always drawn.

Experiments:
[1] = system: Aβtotal; test: Demonstration of in vivo efficacy, brain Aβtotal lowering (ELISA); conditions: mouse brain
Excerpt: (§1) To determine whether acute administration of an Aβ42 peptide lowering agent would reduce Aβ peptide levels in vivo, non-transgenic rodents, e.g. mice or rats were used. Animals treated with the Aβ peptide lowering agent were examined and compared to those untreated or treated with vehicle and brain levels of soluble Aβ42 and total Aβ were quantitated by standard techniques, for example, using ELISA.
(§2) A typical protocol for measuring Aβ42 lowering in vivo is shown but it is only one of many variations that could be used to optimize the levels of detectable Aβ. For example, Aβ peptide lowering compounds were formulated in 20% hydroxypropyl 3 cyclodextrin. The Aβ peptide lowering agents were administered as a single oral dose (p.o.) or a single subcutaneous dose (s.c.) to overnight fasted animals. After a certain time, usually 2 or 4 h (as indicated in Table 19), the animals were sacrificed and Aβ42 levels were analysed.
(§3) Blood was collected by decapitation and exsanguinations in EDTA-treated collection tubes. Blood was centrifuged at 1900 g for 10 minutes (min) at 4° C. and the plasma recovered and flash frozen for later analysis. The brain was removed from the cranium and hindbrain. The cerebellum was removed and the left and right hemisphere were separated. The left hemisphere was stored at −18° C. for quantitative analysis of test compound levels. The right hemisphere was rinsed with phosphate-buffered saline (PBS) buffer and immediately frozen on dry ice and stored at −80° C. until homogenization for biochemical assays.
(§4) Mouse brains from non-transgenic animals were resuspended in 8 volumes of 0.4% DEA (diethylamine)/50 mM NaCl containing protease inhibitors (Roche-11873580001 or 04693159001) per gram of tissue, e.g. for 0.158 g brain, add 1.264 ml of 0.4% DEA. All samples were homogenized in the FastPrep-24 system (MP Biomedicals) using lysing matrix D (MPBio #6913-100) at 6 m/s for 20 seconds. Homogenates were centrifuged at 221.300×g for 50 min. The resulting high speed supernatants were then transferred to fresh eppendorf tubes. Nine parts of supernatant were neutralized with 1 part 0.5 M Tris-HCl pH 6.8 and used to quantify Aβtotal and Aβ42.
(§5) To quantify the amount of Aβtotal and Aβ42 in the soluble fraction of the brain homogenates, Enzyme-Linked-Immunosorbent-Assays were used. Briefly, the standards (a dilution of synthetic Aβ1-40 and Aβ1-42, Bachem) were prepared in 1.5 ml Eppendorf tube in Ultraculture, with final concentrations ranging from 10000 to 0.3 pg/ml. The samples and standards were co-incubated with HRPO-labelled N-terminal antibody for Aβ42 detection and with the biotinylated mid-domain antibody 4G8 for Aβtotal detection. […] The plate was allowed to incubate overnight at 4° C. in order to allow formation of the antibody-amyloid complex. Following this incubation and subsequent wash steps the ELISA for Aβ42 quantification was finished by addition of Quanta Blu fluorogenic peroxidase substrate according to the manufacturer's instructions (Pierce Corp., Rockford, Ill.). A reading was performed after 10 to 15 min (excitation 320 nm/emission 420 nm).
For Aβtotal detection, a Streptavidine-Peroxidase-Conjugate was added, followed 60 min later by an additional wash step and addition of Quanta Blu fluorogenic peroxidase substrate according to the manufacturer's instructions (Pierce Corp., Rockford, Ill.). A reading was performed after 10 to 15 min (excitation 320 nm/emission 420 nm).

[2] = target: recombinant BACE1 protein (Homo sapiens, UniProt P56817); test: Biochemical FRET based assay; conditions: recombinant BACE1 1 μg/ml, 120 minutes at room temperature, pH 5.0; for IC50: read-out: Biochemical FRET based assay pIC50 (converted)
In short: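 Proteolysis was read as the rise in donor fluorescence (320 nm excitation, 405 nm emission) from T0 to T120, expressed in RFU. The reaction ran 120 minutes at room temperature at pH 5.0 in citrate buffer with 4% DMSO, using […] quenched Swedish APP peptide and 1 μg/ml BACE1.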

[3] = system: Aβ42; test: Demonstration of in vivo efficacy, brain Aβ42 lowering (ELISA); conditions: mouse brain
Excerpt: as §1, §2, §3, §4, §5

[4] = system: Abeta total; test: Cellular αLisa assay in SKNBE2 cells, Abeta total; format: cell-based, human; conditions: incubated for 18 hours; for IC50: Homo sapiens, SKNBE2, 18 h, read-out: Cellular αLisa assay in SKNBE2 cells Abetatotal pIC50 (converted)
In short: (§6)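 Secreted Abeta levels were measured by sandwich αLisa, pairing biotin-AbN/25 donor beads with Ab4G8 acceptor beads for total Abeta or cAb42/26 for Abeta 1-42, read at 615 nm after 650 nm excitation following 1 hour. Cells were SKNBE2 expressing wild-type hAPP695, exposed to compound for 18 hours.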

[5] = system: Abeta 1-42; test: Cellular αLisa assay in SKNBE2 cells, Abeta 1-42; format: cell-based, human; conditions: incubated for 18 hours; for IC50: Homo sapiens, SKNBE2, 18 h, read-out: Cellular αLisa assay in SKNBE2 cells Abeta 42 pIC50 (converted)
In short: as §6

[6] = target: T1, P-gp (Homo sapiens, UniProt P08183); test: Transepithelial transport of test compounds through LLC-MDR1 monolayers; format: in vitro ADME; conditions: for efflux ratio at 120 min, 1 μM / Papp A→B at 120 min, 1 μM / Papp B→A at 120 min, 1 μM: pig, LLC-PK1; for efflux ratio at 120 min, 1 μM: read-out: BA/AB; for Papp A→B at 120 min, 1 μM: read-out: A to B (Apparent Permeability, Papp); for Papp B→A at 120 min, 1 μM: read-out: B to A (Apparent Permeability, Papp)
T1 construct: expressed in transfected cells; host or cells: LLC-PK1 cells stably transduced with MDR1 (LLC-MDR1)
Description: Brief Assay Description for the Measurement of Transepithelial Transport of Test Compounds Through LLC-MDR1 Monolayers
The purpose of this assay was to assess both the in vitro passive permeability of test compounds and their ability to be transported substrates of P-gp using LLC-PK1 cells stably transduced with MDR1 in a trans-well system. The positive control for transport was ^3H-digoxin (30 nM) and the positive control inhibitor was GF120918 (5 μM). The marker compound for low permeability was ^14C-Mannitol (1 μM). The test compound concentration was 1 μM.
The integrity of the cellular monolayer was assessed in each incubation well through the inclusion of the fluorescent, low permeability marker compound, Fluorescein.
In detail, LLC-MDR1 cells were seeded on 24-well cell culture inserts (Millicell®-PCF, 0.4 μm, 13 mm diameter, 0.7 cm^2) at 400,000 cells/cm^2. Cell culture medium consisted of Medium 199 supplemented with 10% Foetal Bovine Serum (FBS) and 100 U/ml Penicillin/streptomycin and was replaced the day after seeding and the day before the experiment. The transport experiment was performed 5 days after seeding. On the day of the experiment, solutions of the test compounds were applied to the apical or basolateral side of the monolayers to assess transport in the A to B and B to A directions, respectively. The medium used in the assay was (OPTI-MEM (1×) (GIBCO) with 1 w/v % Bovine Serum Albumin. Inserts were incubated at 37° C. in a humidified incubator containing 5% CO2. Samples from the acceptor and donor compartments were collected after an incubation time of 120 min, to assess the permeability and to allow estimation of the test compound recovery during the experiment, respectively. Transport experiments were performed in triplicate. Absolute test compound concentrations were measured using LC-MS/MS and quantified via a calibration curve.

[7] = LLC-MDR1 monolayers, ratio of B to A and A to B permeation rates

T1 sequence (P08183 whole entry): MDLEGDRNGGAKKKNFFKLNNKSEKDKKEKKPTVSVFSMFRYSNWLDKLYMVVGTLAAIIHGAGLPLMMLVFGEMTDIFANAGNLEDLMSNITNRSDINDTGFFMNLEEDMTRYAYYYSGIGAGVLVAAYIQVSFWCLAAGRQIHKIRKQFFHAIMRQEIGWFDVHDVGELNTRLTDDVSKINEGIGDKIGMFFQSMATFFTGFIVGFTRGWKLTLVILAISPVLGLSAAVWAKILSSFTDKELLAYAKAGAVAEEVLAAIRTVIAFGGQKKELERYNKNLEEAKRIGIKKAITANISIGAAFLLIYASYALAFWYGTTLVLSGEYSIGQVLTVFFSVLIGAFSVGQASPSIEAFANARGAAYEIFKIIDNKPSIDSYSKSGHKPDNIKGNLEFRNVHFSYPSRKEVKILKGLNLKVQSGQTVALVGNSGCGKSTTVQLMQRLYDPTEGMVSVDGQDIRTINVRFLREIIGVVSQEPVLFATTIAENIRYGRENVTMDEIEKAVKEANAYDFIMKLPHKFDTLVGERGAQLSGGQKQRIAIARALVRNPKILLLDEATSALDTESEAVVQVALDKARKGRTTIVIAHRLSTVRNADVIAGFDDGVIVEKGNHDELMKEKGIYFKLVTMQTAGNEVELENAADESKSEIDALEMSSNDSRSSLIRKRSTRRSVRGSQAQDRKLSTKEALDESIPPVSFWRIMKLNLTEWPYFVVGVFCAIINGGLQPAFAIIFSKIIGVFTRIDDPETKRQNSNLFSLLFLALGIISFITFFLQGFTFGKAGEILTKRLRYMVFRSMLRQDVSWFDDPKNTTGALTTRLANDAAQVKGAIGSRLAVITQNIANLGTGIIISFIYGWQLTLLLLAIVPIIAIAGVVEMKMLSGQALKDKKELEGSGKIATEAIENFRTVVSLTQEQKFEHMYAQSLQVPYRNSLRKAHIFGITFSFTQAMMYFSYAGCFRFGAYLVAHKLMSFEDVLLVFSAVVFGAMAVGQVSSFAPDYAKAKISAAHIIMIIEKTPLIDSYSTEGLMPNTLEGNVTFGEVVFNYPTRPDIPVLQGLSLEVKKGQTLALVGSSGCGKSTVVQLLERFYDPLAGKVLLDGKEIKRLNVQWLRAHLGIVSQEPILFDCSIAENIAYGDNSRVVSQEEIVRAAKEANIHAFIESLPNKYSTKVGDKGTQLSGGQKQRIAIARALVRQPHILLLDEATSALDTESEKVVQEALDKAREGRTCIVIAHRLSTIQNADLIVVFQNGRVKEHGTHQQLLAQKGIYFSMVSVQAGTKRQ
Chain of recombinant BACE1 protein (P56817 46-501): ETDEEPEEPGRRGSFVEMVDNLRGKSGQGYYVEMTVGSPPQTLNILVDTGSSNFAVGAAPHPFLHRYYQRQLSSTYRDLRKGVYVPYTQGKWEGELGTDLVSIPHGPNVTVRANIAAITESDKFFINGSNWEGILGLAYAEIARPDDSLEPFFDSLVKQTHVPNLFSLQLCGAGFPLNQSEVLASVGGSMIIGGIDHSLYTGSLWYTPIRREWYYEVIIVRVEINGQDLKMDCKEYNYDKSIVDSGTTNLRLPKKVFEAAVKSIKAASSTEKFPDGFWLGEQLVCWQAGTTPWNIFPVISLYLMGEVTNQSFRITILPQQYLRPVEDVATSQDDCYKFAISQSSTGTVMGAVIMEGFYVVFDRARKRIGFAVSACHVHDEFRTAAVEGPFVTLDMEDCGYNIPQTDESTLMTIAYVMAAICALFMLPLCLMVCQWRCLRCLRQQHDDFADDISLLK

## CC1(c2cccc(-c3ccccc3)c2)COCC(N)=N1 (racemic) [Compound 1, rac-5-biphenyl-3-yl-5-methyl-5,6-dihydro-2H-1,4-oxazin-3-amine trifluoroacetate salt]
[1]; 30 mpk, s.c., 4 h
  Aβtotal (% Ctrl)_Mean: 97 % Ctrl
[2]
  IC50: 24000 nM
[3]; 30 mpk, s.c., 4 h
  Aβ42 (% Ctrl)_Mean: 102 % Ctrl
[4]
  IC50: 1020 nM
[5]
  IC50: 1480 nM

## COc1cncc(-c2cccc(C3(C)COCC(N)=N3)c2)c1 (racemic) [Compound 4, rac-5-[3-(5-methoxypyridin-3-yl)phenyl]-5-methyl-5,6-dihydro-2H-1,4-oxazin-3-amine]
[2]
  IC50: 3640 nM
[4]
  IC50: 219 nM
[5]
  IC50: 257 nM
other
  melting point: 150 °C
[6]; [7]
  efflux ratio at 120 min, 1 μM: 25.9

## CC1(c2cccc(NC(=O)c3ccc(C(F)(F)F)cn3)c2)COCC(N)=N1 (racemic) [Compound 14]
[1]; 30 mpk, s.c., 4 h
  Aβtotal (% Ctrl)_Mean: 116 % Ctrl
[2]
  Biochemical FRET based assay pIC50: 6.28
[3]; 30 mpk, s.c., 4 h
  Aβ42 (% Ctrl)_Mean: 107 % Ctrl
[4]
  Cellular αLisa assay in SKNBE2 cells Abetatotal pIC50: 7.56
[5]
  Cellular αLisa assay in SKNBE2 cells Abeta 42 pIC50: 7.49

## CC1(c2cc(-c3cncnc3)c(F)cc2F)COCC(N)=N1 (racemic) [Compound 59]
[1]; 30 mpk, s.c., 2 h
  Aβtotal (% Ctrl)_Mean: 95 % Ctrl
[2]
  Biochemical FRET based assay pIC50: 5.36
[3]; 30 mpk, s.c., 2 h
  Aβ42 (% Ctrl)_Mean: 114 % Ctrl
[4]
  Cellular αLisa assay in SKNBE2 cells Abetatotal pIC50: 6.417
[5]
  Cellular αLisa assay in SKNBE2 cells Abeta 42 pIC50: 6.44

## CC1(c2cccc(NC(=O)c3ccc(C#N)cn3)c2)COCC(N)=N1 (single isomer, unassigned) [Compound 50]
[1]; 5 mpk, s.c., 4 h
  Aβtotal (% Ctrl)_Mean: 95 % Ctrl
[2]
  Biochemical FRET based assay pIC50: 6.93
[3]; 5 mpk, s.c., 4 h
  Aβ42 (% Ctrl)_Mean: 133 % Ctrl
[4]
  Cellular αLisa assay in SKNBE2 cells Abetatotal pIC50: 7.88
[5]
  Cellular αLisa assay in SKNBE2 cells Abeta 42 pIC50: 7.91

## CC1(c2cccc(-c3cncnc3)c2)N=C(N)COC1F (single isomer, unassigned) [Compound 96]
[1]; 30 mpk, s.c., 4 h
  Aβtotal (% Ctrl)_Mean: 104 % Ctrl
[2]
  IC50: 11200 nM
[3]; 30 mpk, s.c., 4 h
  Aβ42 (% Ctrl)_Mean: 116 % Ctrl
[4]
  Cellular αLisa assay in SKNBE2 cells Abetatotal pIC50: 6.43
[5]
  Cellular αLisa assay in SKNBE2 cells Abeta 42 pIC50: 6.46

## CC1(c2cc(-c3cncnc3)ccc2F)N=C(N)COC1C(F)(F)F (single isomer, unassigned) [Compound 106]
[2]
  IC50: 4370 nM
[4]
  Cellular αLisa assay in SKNBE2 cells Abetatotal pIC50: 6.23
[5]
  Cellular αLisa assay in SKNBE2 cells Abeta 42 pIC50: 6.2
other
  melting point: 173.8 °C
[6]; [7]
  efflux ratio at 120 min, 1 μM: 1.1
[6]
  Papp A→B at 120 min, 1 μM: 18.2 ×10⁻⁶ cm/s
  Papp B→A at 120 min, 1 μM: 19.8 ×10⁻⁶ cm/s

## CC1(c2cc(NC(=O)c3ccc(C#N)cn3)ccc2F)N=C(N)COC1F (single isomer, unassigned) [Compound 124]
[1]; 30 mpk, p.o., 4 h
  Aβtotal (% Ctrl)_Mean: 25 % Ctrl
[3]; 30 mpk, p.o., 4 h
  Aβ42 (% Ctrl)_Mean: 23 % Ctrl
[4]
  Cellular αLisa assay in SKNBE2 cells Abetatotal pIC50: 8.2
[5]
  Cellular αLisa assay in SKNBE2 cells Abeta 42 pIC50: 8.21

## C[C@@]1(c2cc(NC(=O)c3ccc(C#N)cn3)ccc2F)COCC(N)=N1 [Compound 43]
[2]
  Biochemical FRET based assay pIC50: 7.14
[4]
  Cellular αLisa assay in SKNBE2 cells Abetatotal pIC50: 8.45
[5]
  Cellular αLisa assay in SKNBE2 cells Abeta 42 pIC50: 8.34
[6]; LLC-MDR1 monolayers, 1 μM test compound, 120 minutes, apical to basolateral, absence of GF120918
  A to B (Apparent Permeability, Papp): 1.4 ×10⁻⁶ cm/s
[6]; LLC-MDR1 monolayers, 1 μM test compound, 120 minutes, basolateral to apical
  B to A (Apparent Permeability, Papp): 26.6 ×10⁻⁶ cm/s
[6]; [7]
  BA/AB: 18.5

## COc1cncc(-c2cccc(C3(C)N=C(N)COC3F)c2)c1 (stereo not shown) [Compound 100]
[2]
  IC50: 1550 nM
[4]
  IC50: 339 nM
[5]
  IC50: 347 nM
other
  melting point: 139.2 °C
[6]; [7]
  efflux ratio at 120 min, 1 μM: 3.6
[6]
  Papp A→B at 120 min, 1 μM: 7.6 ×10⁻⁶ cm/s
  Papp B→A at 120 min, 1 μM: 27.4 ×10⁻⁶ cm/s

## COc1cnc(C(=O)Nc2ccc(F)c([C@@]3(C)N=C(N)CO[C@@H]3F)c2)cn1 [Compound 123]
[1]; 10 mpk, p.o., 4 h
  Aβtotal (% Ctrl)_Mean: 38 % Ctrl
[1]; 10 mpk, s.c., 4 h
  Aβtotal (% Ctrl)_Mean: 21 % Ctrl
[3]; 10 mpk, p.o., 4 h
  Aβ42 (% Ctrl)_Mean: 38 % Ctrl
[3]; 10 mpk, s.c., 4 h
  Aβ42 (% Ctrl)_Mean: 24 % Ctrl
[4]
  IC50: 10.5 nM
[5]
  IC50: 10.7 nM

## COc1cnc(C(=O)Nc2ccc(F)c([C@@]3(C4CC4)N=C(N)CO[C@H]3F)c2)cn1 [Compound 217]
[1]; 30 mpk, p.o., 2 h
  Aβtotal (% Ctrl)_Mean: 73 % Ctrl
[3]; 30 mpk, p.o., 2 h
  Aβ42 (% Ctrl)_Mean: 80 % Ctrl
[4]
  IC50: 490 nM
[5]
  IC50: 525 nM
